Measured values from US20260373248A1, “DEGRADABLE PEPTOIDS” (Medici Therapeutics, Inc., priority 2023, published 2026).
Starred links: 1 amine or outer side, 2 acyl side, 3 side chain; linkers in the order of their positions; H or OH if unused. Non-standard residues stand in square brackets, D forms with d. Residues, ends and D or L forms follow the SMILES beside them. *: point of attachment. N(2-decanoyloxyethyl)Gly = CCCCCCCCCC(=O)OCCNCC(=O)O; Gly(N-(CH2)3O-octanoyl) = CCCCCCCC(=O)OCCCNCC(=O)O; Gly(N-3-morpholinopropyl) = O=C(O)CNCCCN1CCOCC1; N(2-ethylhexyl)Gly = CCCCC(CC)CNCC(=O)O; X1 = CCCCC(CC)CSSCCN(CC(=O)[*:2])[*:1]; X3 = CCCCCCCCSSCCN(CC(=O)[*:2])[*:1]; N(CH(CH2OH)2)Gly = O=C(O)CNC(CO)CO; N(octyl)Gly = CCCCCCCCNCC(=O)O; NDecylGly = CCCCCCCCCCNCC(=O)O; For = O=C*

Assays:
[1] = tested on: luciferase; assay: Luciferase expression after local (intramuscular or subcutaneous) administration of mRNA; format: in vivo; conditions: mRNA 0.01 mpk, 6 hours; for IM Flux: intramuscular; for SC Flux: subcutaneous
Method: (§1) All animal studies were conducted under accreditation by the California State Department of Public Health and under supervision of IACUC and Veterinarian Supervision. For imaging studies, female Balb/c mice (6-8 weeks old) were obtained and acclimatized for a minimum of 3 days prior to experiments. The animals were maintained on a 12 hour light cycle in a temperature and humidity controlled room. A daily health check was performed as well as food and water check. For dosing, mice were injected with 2.5 ug fLuc mRNA-containing Nutshells intravenously in 100 μL total injection value. At 6 hours post-injection, mice were anesthetized with isoflurane, injected IP with 30 mg/mL D-luciferin at a dose of 10 μL per gram bodyweight intraperitoneally. Imaging was done 10 minutes post D-luciferin injection using an IVIS Spectrum Imaging System (Caliper Life Sciences). Immediately after in vivo imaging, mice were terminally bled by cardiac puncture and euthanized. The organs of interest were harvested, placed in black 24-well plates, and imaged. Living Image software (Perkin Elmer) was used to quantify the total photon flux in regions of interest.
Aminolipidated peptoids were also effective for local administration of mRNA through subcutaneous (S.C.) or intramuscular (I.M.) routes of administration. For these examples, mRNA was administered at a dose of 0.1 mpk for intratomoral, or 0.01 mpk for subcutaneous and intramuscular administration, and the resulting bioluminescence quantified after 6 hours according to a similar procedure as described in Example 4.

[2] = tested on: mRNA; assay: mRNA encapsulation (modified Quant-iT RiboGreen assay); format: physicochemical; conditions: RiboGreen, without vs with Triton X-100
Method: The mRNA concentration and the percentage of encapsulated mRNA were determined using fluorescent-based Quant-iT RiboGreen RNA Reagent Kit (Life Technologies, Waltham, MA) as described previously. To determine the mRNA concentration, PNPs was incubated with […] for 10 min to release entrapped mRNA, followed by addition of RiboGreen RNA reagent. The fluorescence intensity of mRNA-RiboGreen reagent complex (excitation at 485 nm and emission at 530 nm) was detected using a microplate reader. The ratio of fluorescence without and with Triton X-100 were used to calculate the percentage of encapsulated mRNA.
(§2) Degradable peptoids described herein were formulated as various formulations described in Table 3 according to the procedure described in Example 2. Particle size was characterized as described in Example 2, and […] encapsulation of mRNA was determined as described in Example 3.

[3] = Delivery vehicle size and polydispersity by dynamic light scattering; format: physicochemical; conditions: DLS in PBS; peptoid:DSPC:Cholesterol:DMG-PEG2000 weight ratio 20:1.79:7.16:1.84, mRNA
Method: Delivery vehicles were formulated by rapid microfluidic mixing using a high throughput microfluidic system. Briefly, ethanol solutions containing peptoid, DSPC, Cholesterol, DMG-PEG2000 at weight ratio of 20:1.79:7.16:1.84, were mixed with 10 mM sodium citrate buffer (pH 5.0) containing synthesized mRNA at a ratio of 1:3 by volume. Peptoid based LNPs were subsequently dialyzed against 1-2 liters of tris-sucrose buffer (TS7, pH 7.4) overnight at 4 °C. Delivery vehicle size and polydispersity (PDI) was measured by dynamic light scattering in PBS.
as §2

[4] = tested on: firefly luciferase; assay: In vivo firefly luciferase expression after intravenous injection of fLuc mRNA delivery vehicles (IVIS imaging); set-up: species or system female Balb/c mice; conditions: mice, 2.5 ug fLuc mRNA intravenously, 6 hours post-injection
Method: as §1
Luciferase expression in these formulations was also determined as described in Example 4.

| Compound | IM Flux [1] [p/s] | SC Flux [1] [p/s] | mean percent encapsulation of RNA [2] [%] | PDI [3] | Particle Size [3] [nm] | Total Flux [4] [p/s] |
| --- | --- | --- | --- | --- | --- | --- |
| CCCCCCCCCCN(CC(=O)N(CCSSCC(CC)CCCC)CC(=O)N(CCCOC(=O)CCCCCCC)CC(N)=O)C(=O)CN(CCSSCC(CC)CCCC)C(=O)CN(CCCOC(=O)CCCCCCC)C(=O)CN(CC(CC)CCCC)C(=O)CNC(CO)CO (stereo not drawn) [Compound 130] (H-[N(CH(CH2OH)2)Gly][N(2-ethylhexyl)Gly][Gly(N-(CH2)3O-octanoyl)][X1][NDecylGly][X1][Gly(N-(CH2)3O-octanoyl)]-NH2) | 2.72E+08 | 1.92E+08 | 86.0 | 0.086 | 75.5 | 4.45E+09 |
| CCCCCCCCN(C=O)CC(=O)N(CCCOC(=O)CCCCCCC)CC(=O)N(CCSSCC(CC)CCCC)CC(=O)N(CCCN1CCOCC1)CC(=O)N(CCSSCC(CC)CCCC)CC(=O)N(CCCOC(=O)CCCCCCC)CC(=O)N(CCCCCCCC)CC(N)=O (stereo not drawn) [Compound 132] (For-[N(octyl)Gly][Gly(N-(CH2)3O-octanoyl)][X1][Gly(N-3-morpholinopropyl)][X1][Gly(N-(CH2)3O-octanoyl)][N(octyl)Gly]-NH2) | 4.62E+08 | 6.94E+08 | 74.2 | 0.090 | 86.0 | 1.31E+10 |
| CCCCCCCC(=O)OCCCN(C=O)CC(=O)N(CCCOC(=O)CCCCCCC)CC(=O)N(CCSSCC(CC)CCCC)CC(=O)N(CCCN1CCOCC1)CC(=O)N(CCSSCC(CC)CCCC)CC(=O)N(CCCOC(=O)CCCCCCC)CC(=O)N(CCCOC(=O)CCCCCCC)CC(N)=O (stereo not drawn) [Compound 133] (For-[Gly(N-(CH2)3O-octanoyl)][Gly(N-(CH2)3O-octanoyl)][X1][Gly(N-3-morpholinopropyl)][X1][Gly(N-(CH2)3O-octanoyl)][Gly(N-(CH2)3O-octanoyl)]-NH2) | 1.08E+07 | 3.73E+07 | 86.7 | 0.083 | 76.9 | 2.80E+08 |
| CCCCCCCCSSCCN(CC(=O)N(CCCN1CCOCC1)CC(=O)N(CCSSCCCCCCCC)CC(=O)N(CCCOC(=O)CCCCCCC)CC(=O)N(CCCOC(=O)CCCCCCC)CC(N)=O)C(=O)CN(CCCOC(=O)CCCCCCC)C(=O)CN(C=O)CCCOC(=O)CCCCCCC [Compound 134] (For-[Gly(N-(CH2)3O-octanoyl)][Gly(N-(CH2)3O-octanoyl)][X3][Gly(N-3-morpholinopropyl)][X3][Gly(N-(CH2)3O-octanoyl)][Gly(N-(CH2)3O-octanoyl)]-NH2) | 6.40E+07 | 1.60E+08 | 83.7 | 0.062 | 73.8 | 5.63E+08 |
| CCCCCCCCCC(=O)OCCN(CC(=O)N(CCOC(=O)CCCCCCCCC)CC(=O)N(CCSSCC(CC)CCCC)CC(=O)N(CCOC(=O)CCCCCCCCC)CC(=O)N(CCOC(=O)CCCCCCCCC)CC(=O)N(CCSSCC(CC)CCCC)CC(N)=O)C(=O)CNC(CO)CO (stereo not drawn) [Compound 135] (H-[N(CH(CH2OH)2)Gly][N(2-decanoyloxyethyl)Gly][N(2-decanoyloxyethyl)Gly][X1][N(2-decanoyloxyethyl)Gly][N(2-decanoyloxyethyl)Gly][X1]-NH2) | 3.49E+08 | 5.56E+08 | 91.4 | 0.158 | 59.2 | 8.92E+08 |
